Measurements reported in patent publication US20250092058A1 (priority 2018, published 2025).

Columns and labels:
[1] = test system: A549; format: cell-based, human; conditions: Table 13; MTT; A549 lung cancer
[2] = test system: PANC1, Mia2, BxPC-3; experiment: MTT viability of pancreatic cancer cells; format: cell-based, human; conditions: 72 h, nM level
Experimental: MTT assays. […] Each experiment was performed at least in triplicate.
Next, we determined whether FL118-mediated inhibition of antiapoptotic proteins and induction of pro-apoptotic proteins shown in FIG. 1 would be accompanied by induction of apoptosis and cell killing.

[3] = test system: PDX17624; experiment: Pancreatic cancer PDX17624 in SCID mice; format: in vivo; conditions: 5 mg/kg ip qw×4
Experimental: Human pancreatic cancer patient-derived xenograft (PDX) tumor mouse model and treatment. Experiments followed the IACUC-approved mouse protocol. Briefly, human PDAC PDX tumors maintained on SCID mice were isolated, and a piece of non-necrotic tumor tissues (30-40 mg) were subcutaneously transplanted into the flank area of female SCID mice. […] In this study, we used the timesaving intraperitoneal (ip) route for drug administration. […] The formulation process was described in detail in our previous patent (PCT/US2011/058558). […] Tumor length (L) and width (W) were measured using digital vernier calipers 1-3 times per week until the end of experimental studies. The tumor volume (v) was calculated using the formula: v=0.5 (L×W^2). Then the tumor size was divided by the day 0 tumor size as percentage tumor size versus day 0. The mean tumor volume ± standard deviation (SD) at each time point was derived from 5 mice in each group. The tumor curves were made using Sigma Plot software.
It has been recently documented that pancreatic cancer PDXs retain active paracrine/Hedgehog signaling, and desmoplasia is active in PDX tumor mouse models.

[4] = Oral PK in SW620/HT29 tumor-bearing SCID mice; conditions: 1.5 mg/kg oral, HPβCD aqueous suspension
Experimental: Tumor tissues and blood samples were collected at a series of time points of 30 minutes, 1 hour, 4 hours, 12 hours and 24 hours. Each tumor tissue was collected in a tube and immediately frozen with liquid nitrogen; each blood sample was collected in a Li-Heparin LH/1.3 tube ([sequence]), and plasma was recovered by centrifugation (1500 rpm×2 minutes). The collected plasma from each blood sample was transferred into a new tube and immediately frozen in liquid nitrogen. Liquid nitrogen-frozen specimens were then transferred to an −80° C. freezer for analysis.
Drug in plasma is extracted with acidified methanol. An 800 μL aliquot of ice-cold acidified methanol is added to 200 μL plasma and vortexed for 15 sec. […] An 800 μL aliquot of ice-cold acidified methanol is added to 200 μL homogenized tissue and then vortexed for 1 min. The samples are then centrifuged at 13,000 rpm for 5 min. and the supernatant is transferred to a clean 13×100 mm glass tube. Samples are dried under vacuum and stored at −20° C. until analysis. […] Analysis is carried out using an Acquity UPLC system with Fluorescence detection interfaced with Empower software. […] The fluorescence detector is set at the following Excitation (Ex) and Emissions (Em) wavelengths: Ex 370 nm Em 510 nm. […] QC samples are analyzed with each curve.

CC[C@@]1(O)C(=O)OCc2c1cc1n(c2=O)Cc2cc3cc4c(cc3nc2-1)OCO4 [FL118, 10,11-methylenedioxy-camptothecin]
IC50 [1]: 81.8 ± 14 nM
pancreatic cancer cell viability [2]: effectively inhibited pancreatic cancer cell viability
antitumor efficacy [3]: able to eliminate these PDX tumors after one cycle of treatment
concentration in tumor versus serum [4]: many folds higher than those in serum
